Laboratory results from US20130217664A1, “NOVEL COMPOUNDS USEFUL FOR THE TREATMENT OF DEGENERATIVE AND INFLAMMATORY DISEASES” (priority 2012, published 2013).
Read-outs that look alike come from different tables or passages of the source.

Key:
human JAK1 = target: T1, human JAK1 (Homo sapiens, UniProt P23458); experiment: JAK1 inhibition assay (polyGT substrate / Ulight-JAK1 peptide); assay type: biochemical; conditions: recombinant human JAK1 catalytic domain; polyGT or Ulight-JAK1 peptide assay
T1 construct: catalytic domain, amino acids 866-1154; catalog number PV4774; purchased Invitrogen PV4774
T1 sequence (P23458 866-1154): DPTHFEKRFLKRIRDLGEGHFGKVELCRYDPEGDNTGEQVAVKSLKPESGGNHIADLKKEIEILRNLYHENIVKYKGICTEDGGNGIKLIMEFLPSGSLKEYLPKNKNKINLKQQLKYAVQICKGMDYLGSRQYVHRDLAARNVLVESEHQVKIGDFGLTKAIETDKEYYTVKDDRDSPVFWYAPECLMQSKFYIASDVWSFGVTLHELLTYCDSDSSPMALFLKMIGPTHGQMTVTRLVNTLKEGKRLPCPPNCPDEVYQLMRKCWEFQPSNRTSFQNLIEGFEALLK
How it was run: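 Signal scaled between vehicle and 10 μM staurosporine. Radiometric polyGT reactions ran 45 min at 30 °C, counted after phosphoric-acid stop. Ulight peptide reactions ran 60 min at room temperature, fluorescence read after adding Eu-PT66 detection mix with EDTA.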

human TYK2 = target: T2, human TYK2 (Homo sapiens, UniProt P29597); experiment: TYK2 inhibition assay; assay type: biochemical; conditions: recombinant human TYK2 catalytic domain, polyGT substrate
T2 construct: catalytic domain (amino acids 871-1187; catalog number 08-147); purchased Carna Biosciences 08-147
T2 sequence (P29597 871-1187): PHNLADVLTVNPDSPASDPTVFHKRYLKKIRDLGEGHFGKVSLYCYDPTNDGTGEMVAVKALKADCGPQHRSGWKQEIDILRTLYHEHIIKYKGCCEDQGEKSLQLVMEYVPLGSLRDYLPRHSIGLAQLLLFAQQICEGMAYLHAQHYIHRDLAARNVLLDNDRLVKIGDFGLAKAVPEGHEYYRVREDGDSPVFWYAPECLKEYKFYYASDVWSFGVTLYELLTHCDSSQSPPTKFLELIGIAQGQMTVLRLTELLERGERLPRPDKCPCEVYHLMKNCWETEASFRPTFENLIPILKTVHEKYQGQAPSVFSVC
How it was run: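 Radiometric kinase reaction run 90 min at 30 °C, stopped with phosphoric acid, washed and scintillation-counted.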

[1] = tested on: pSTAT1(2)-luciferase reporter in HeLa cells triggered with human OSM; experiment: JAK-STAT signalling assay; assay type: cell-based; conditions: HeLa cells, pSTAT1(2)-luciferase reporter, human OSM 33 ng/mL, read-out: JAK-STAT IC50
Experimental: JAK-STAT Signalling Assay
HeLa cells were maintained in Dulbecco's Modified Eagle's Medium (DMEM) containing 10% heat inactivated fetal calf serum, 100 U/mL penicillin and 100 μg/mL streptomycin. HeLa cells were used at 70% confluence for transfection. 20,000 cells in 87 μL cell culture medium were transiently transfected with 40 ng pSTAT1(2)-luciferase reporter (Panomics), 8 ng of LacZ reporter as internal control reporter and 52 ng of pBSK using 0.32 μL Jet-PEI (Polyplus) as transfection reagent per well in 96-well plate format. After overnight incubation at 37° C., 5% CO2, transfection medium was removed. 81 μL of DMEM+1.5% heat inactivated fetal calf serum was added. 9 μL compound at 10× concentration was added for 60 min and then 10 μL of human OSM (Peprotech) at 33 ng/mL final concentration.
After overnight incubation at 37° C., 5% CO2 cells were lysed by adding 100 μL lysis buffer/well (PBS, 0.9 mM CaCl2, 0.5 mM MgCl2, 10% Trehalose, 0.05% Tergitol NP9, 0.3% BSA).
40 μL of cell lysate was used to read β-galactosidase activity by adding 180 μL β-Gal solution (30 μL ONPG 4 mg/mL+150 μL β-Galactosidase buffer (0.06 M Na2HPO4, 0.04 M NaH2PO4, 1 mM MgCl2)) for 20 min.
Luciferase activity was measured using 40 μL cell lysate plus 40 μL of Steadylite as described by the manufacturer (Perkin Elmer), on the Envision (Perkin Elmer).
The positive and negative controls were used to calculate z′ and ‘percent inhibition’ (PIN) values.
Percentage inhibition=((fluorescence determined in the presence of vehicle−fluorescence determined for sample with test compound present)divided by(fluorescence determined in the presence of vehicle−fluorescence determined for sample without trigger))*100.
PIN values were plotted for compounds tested in dose-response and EC50 values were derived.

human JAK3 = target: T3, human JAK3 (Homo sapiens, UniProt P52333); experiment: JAK3 inhibition assay; assay type: biochemical; conditions: recombinant human JAK3 catalytic domain; polyGT substrate
T3 construct: catalytic domain (amino acids 781-1124; catalog number PV3855); purchased Invitrogen PV3855
T3 sequence (P52333 781-1124): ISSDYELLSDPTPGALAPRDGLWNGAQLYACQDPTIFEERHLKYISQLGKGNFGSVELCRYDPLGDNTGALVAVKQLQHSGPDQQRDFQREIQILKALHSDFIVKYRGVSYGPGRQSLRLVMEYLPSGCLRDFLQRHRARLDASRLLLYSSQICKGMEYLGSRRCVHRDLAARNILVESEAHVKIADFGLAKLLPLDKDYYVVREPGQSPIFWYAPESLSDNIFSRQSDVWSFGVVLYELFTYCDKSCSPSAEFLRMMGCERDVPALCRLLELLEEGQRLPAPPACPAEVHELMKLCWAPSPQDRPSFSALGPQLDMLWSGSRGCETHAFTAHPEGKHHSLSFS
How it was run: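 Radiometric kinase assay: 0.5 ng JAK3 with 2.5 μg polyGT in Tris pH 7.5/MgCl2 buffer, 1 μM ATP plus 0.25 μCi 33P-γ-ATP, 1% DMSO, 45 min at 30 °C, stopped with phosphoric acid.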

IC50 (human JAK1) | IC50 (human TYK2) | IC50 ([1]; Homo sapiens, HeLa) | IC50 (human JAK3) | IC50 [1] | Compound
0.01 to 100 nM | 101 to 500 nM | > 1000 nM | > 1000 nM |  | CCc1cc(C2=CCN(C(=O)OC(C)(C)C)CC2)ccc1N(C)c1cc2c(cn1)ncn2C [Compound 154, tert-butyl 4-(3-ethyl-4-(methyl(1-methyl-1H-imidazo[4,5-c]pyridin-6-yl)amino)phenyl)-5,6-dihydropyridine-1(2H)-carboxylate]
0.01 to 100 nM | 0.01 to 100 nM | > 1000 nM | > 1000 nM |  | CCc1cc(-c2noc(COC)n2)ccc1N(C)c1cc2c(cn1)ncn2C [Compound 157, N-(2-ethyl-4-(5-(methoxymethyl)-1,2,4-oxadiazol-3-yl)phenyl)-N,1-dimethyl-1H-imidazo[4,5-c]pyridin-6-amine]
0.01 to 100 nM | 101 to 500 nM | 1 to 500 nM | 101 to 500 nM |  | CCc1cc(-c2cnn(CC)c2)ccc1N(C)c1cc2c(cn1)ncn2C [Compound 241, N-(2-ethyl-4-(1-ethyl-1H-pyrazol-4-yl)phenyl)-N,1-dimethyl-1H-imidazo[4,5-c]pyridin-6-amine]
0.01 to 100 nM | 101 to 500 nM | > 1000 nM | 101 to 500 nM |  | CCc1cc(CNC(=O)CC#N)ccc1N(C)c1cc2c(cn1)ncn2C [Compound 255, 2-cyano-N-(3-ethyl-4-(methyl(1-methyl-1H-imidazo[4,5-c]pyridin-6-yl)amino)benzyl)acetamide]
0.01 to 100 nM | 101 to 500 nM | 501 to 1000 nM | 101 to 500 nM |  | CCc1cc(CNC(=O)OC)ccc1N(C)c1cc2c(cn1)ncn2C [Compound 191, Methyl 3-ethyl-4-(methyl(1-methyl-1H-imidazo[4,5-c]pyridin-6-yl)amino)benzyl carbamate]
0.01 to 100 nM | 0.01 to 100 nM | 1 to 500 nM | 101 to 500 nM |  | CCC(=O)N1CC=C(c2ccc(N(C)c3cc4c(cn3)ncn4C)c(CC)c2)CC1 [Compound 158, 1-(4-(3-ethyl-4-(methyl(1-methyl-1H-imidazo[4,5-c]pyridin-6-yl)amino)phenyl)-5,6-dihydropyridin-1(2H)-yl)propan-1-one]
0.01 to 100 nM | 101 to 500 nM |  | 501 to 1000 nM | > 1000 nM | CCc1cc(-c2cnn(CC3(C)COC3)c2)ccc1N(C)c1cc2c(cn1)ncn2C [Compound 242, N-(2-ethyl-4-(1-((3-methyloxetan-3-yl)methyl)-1H-pyrazol-4-yl)phenyl)-N,1-dimethyl-1H-imidazo[4,5-c]pyridin-6-amine]
0.01 to 100 nM | 501 to 1000 nM | > 1000 nM | > 1000 nM |  | CCc1cc(-c2cncc(S(C)(=O)=O)c2)ccc1N(C)c1cc2c(cn1)ncn2C [Compound 218, N-(2-ethyl-4-(5-(methylsulfonyl)pyridin-3-yl)phenyl)-N,1-dimethyl-1H-imidazo[4,5-c]pyridin-6-amine]
0.01 to 100 nM | 0.01 to 100 nM | 1 to 500 nM | 101 to 500 nM |  | CCc1cc(-c2cnn(Cc3ccc(OC)cc3)c2)ccc1N(C)c1cc2c(cn1)ncn2C [Compound 208, N-(2-ethyl-4-(1-(4-methoxybenzyl)-1H-pyrazol-4-yl)phenyl)-N,1-dimethyl-1H-imidazo[4,5-c]pyridin-6-amine]

Further lines, the compound ahead of its results:

Compound | IC50 (human JAK1) | IC50 (human TYK2) | IC50 ([1]; Homo sapiens, HeLa) | IC50 (human JAK3) | IC50 [1]
CCc1cc(-c2cscn2)ccc1N(C)c1cc2c(cn1)ncn2C [Compound 150, N-(2-ethyl-4-(thiazol-4-yl)phenyl)-N,1-dimethyl-1H-imidazo[4,5-c]pyridin-6-amine] | 0.01 to 100 nM | 0.01 to 100 nM | 1 to 500 nM | 101 to 500 nM | 
CCc1ccccc1N(CC(F)F)c1cc2c(cn1)ncn2C [Compound 284, (2,2-Difluoro-ethyl)-(2-ethyl-phenyl)-(1-methyl-1H-imidazo[4,5-c]pyridin-6-yl)-amine] | 0.01 to 100 nM | 0.01 to 100 nM | 501 to 1000 nM | 101 to 500 nM | 
CCc1cc(CN2CCS(=O)(=O)CC2)ccc1N(C)c1cc2c(cn1)ncn2C [Compound 143, [4-(1,1-Dioxothiomorpholin-4-ylmethyl)-2-ethyl-phenyl]-methyl-(1-methyl-1H-imidazo[4,5-c]pyridin-6-yl)-amine] | 0.01 to 100 nM | 501 to 1000 nM | > 1000 nM | 501 to 1000 nM | 
CCc1cc(-c2cnn(CC(=O)N(C)C)c2)ccc1N(C)c1cc2c(cn1)ncn2C [Compound 220, 2-(4-(3-ethyl-4-(methyl(1-methyl-1H-imidazo[4,5-c]pyridin-6-yl)amino)phenyl)-1H-pyrazol-1-yl)-N,N-dimethylacetamide] | 0.01 to 100 nM | 0.01 to 100 nM | 501 to 1000 nM | 101 to 500 nM | 
CCc1cc(C2=CCN(C(=O)N(C)CC)CC2)ccc1N(C)c1cc2c(cn1)ncn2C [Compound 206, N-ethyl-4-(3-ethyl-4-(methyl(1-methyl-1H-imidazo[4,5-c]pyridin-6-yl)amino)phenyl)-N-methyl-5,6-dihydropyridine-1(2H)-carboxamide] | 0.01 to 100 nM | 0.01 to 100 nM | > 1000 nM | 101 to 500 nM | 
CCc1cc(CNCC#N)ccc1N(C)c1cc2c(cn1)ncn2C [Compound 149, 2-(3-ethyl-4-(methyl(1-methyl-1H-imidazo[4,5-c]pyridin-6-yl)amino)benzylamino) acetonitrile] | 0.01 to 100 nM | 0.01 to 100 nM | > 1000 nM | 101 to 500 nM | 
CCc1cc(C2=CCN(C(=O)C(C)OC)CC2)ccc1N(C)c1cc2c(cn1)ncn2C (centres unmarked) [Compound 250, 1-(4-(3-ethyl-4-(methyl(1-methyl-1H-imidazo[4,5-c]pyridin-6-yl)amino)phenyl)-5,6-dihydropyridin-1(2H)-yl)-2-methoxypropan-1-one] | 0.01 to 100 nM | 0.01 to 100 nM | 1 to 500 nM | 501 to 1000 nM | 
CCc1cc(-c2nnc(C)o2)ccc1N(C)c1cc2c(cn1)ncn2C [Compound 177, N-(2-Ethyl-4-(5-methyl-1,3,4-oxadiazol-2-yl)phenyl)-N,1-dimethyl-1H-imidazo[4,5-d]pyridin-6-amine] | 0.01 to 100 nM | 0.01 to 100 nM | 501 to 1000 nM | > 1000 nM | 
CCc1cc(C2=CCN(C(=O)NC)CC2)ccc1N(C)c1cc2c(cn1)ncn2C [Compound 204, 4-(3-ethyl-4-(methyl(1-methyl-1H-imidazo[4,5-c]pyridin-6-yl)amino)phenyl)-N-methyl-5,6-dihydropyridine-1(2H)-carboxamide] | 0.01 to 100 nM | 0.01 to 100 nM | 1 to 500 nM | 0.01 to 100 nM | 
CCc1cc(-c2cnn(CC(N)=O)c2)ccc1N(C)c1cc2c(cn1)ncn2C [Compound 222, 2-(4-(3-Ethyl-4-(methyl(1-methyl-1H-imidazo[4,5-c]pyridin-6-yl)amino)phenyl)-1H-pyrazol-1-yl)acetamide] | 0.01 to 100 nM | 0.01 to 100 nM | 1 to 500 nM | 101 to 500 nM | 
CCc1cc(-c2cnn(CC#N)c2)ccc1N(C)c1cc2c(cn1)ncn2C [Compound 209, 2-(4-(3-ethyl-4-(methyl(1-methyl-1H-imidazo[4,5-c]pyridin-6-yl)amino)phenyl)-1H-pyrazol-1-yl)acetonitrile] | 0.01 to 100 nM | 101 to 500 nM | 501 to 1000 nM | 101 to 500 nM | 
